How the values were obtained:
[1] = tested on: primary human NSCLC tumors (dissociated cells); assay: TCA: Compound B-1 with radiation (1-16 Gy), primary NSCLC tumors; type: cell-based; design: Average Bliss score: scale not given here
Experimental: (§1) In both studies, cell viability was assessed after 6 days in culture. Statistical analysis of the combination matrix was performed to assess whether synergy, additivity, or antagonism of the combination treatments were observed.
(§2) Materials: Primary patient samples (See Tables 16 and 17, below) were excised from mice when they reached 500 mg to 1000 mg in size and processed immediately, or after overnight shipment. Tumors were serially passaged by subcutaneous implantation of 50 mg to 150 mg fragments into the flanks of immunocompromised (nude) mice. Tumors were used within the first 5 or 7 passages.
(§3) Tumor Chemosensitivity Assay (TCA): Primary tumor samples were grown and serially passaged in immunocompromised mice. Tumors were mechanically dissociated into small fragments (1 mm to 2 mm) with scalpels in phosphate buffered saline (PBS or RPMI) and centrifuged at 200×g for 5 minutes at room temperature in 50 mL centrifuge tubes. Samples were resuspended in 10 mL of cell dissociation reagent and enzymatically digested with mechanical agitation for 1 to 3 hours at 37° C., 5% CO2 to a single cell suspension. Ten mL of complete RPMI-1640 media was added to the cell mixture and pipetted up and down 4 to 5 times. The mixture was then passed through a 70 μm or 100 μm mesh strainer to remove undigested tumor. The filtrate was then centrifuged 200×g for 5 minutes at room temperature and resuspended in 20 mL complete RPMI-1640. This cell suspension was slowly layered onto 20 mL of room temperature Histopaque and centrifuged at 400×g for 15 minutes at room temperature without a brake. The interface was transferred to a new 50 mL centrifuge tube and 15 mL of complete RPMI-1640 was added. This suspension was centrifuged at 200×g at room temperature, and the resulting pellet was resuspended in 10 mL of complete PC-1 media, except for pancreatic tumors in which case Pancreatic Medium was used. Cells were diluted in Trypan blue, and viable cells that excluded the dye were counted. Only the larger, tumor cells were included in the cell count. Cells were diluted in complete PC-1 or Pancreatic media, as appropriate for the cells, and were plated at 15,000 to 20,000 cells per well in 100-135 μL in ultra-low attachment U-bottom plates.
(§4) Compound Addition: For these studies, a 10 mM stock of the DNA-PK inhibitor (Compound B-1 or Compound B-2) was made in DMSO and used to add to cells from most tumors with HP D300 Digital Dispenser (Tecan US, Morrisville, NC, USA), or diluted into the appropriate media (PC-1 or pancreatic media) as a 5-10× stock and added to cells (OVX001 and ENX001, 005). PC-1, pancreatic media, and chemotherapeutics were also added so that final well volume was 150 μL. Doxorubicin was made as DMSO stock of 1 or 10 mM and added to cells for most tumors with HP D300 Digital Dispenser, or diluted into PC-1 as 5-10× stock and added to cells (OVX001 and ENX001, 005). Cisplatin (cis-diammine platinum(II), dichloride) was prepared fresh to 10 mM in warm (60° C.) distilled water and diluted in PC-1 as a 5-10× stock. […] Different starting concentrations, dose ranges, and number of doses were used for each experiment based on the response data available at the time.
In radiation experiments, a range of 1-16 Gy was administered using a cesium-137 source (GammaCell 40 Exactor, MDS Nordion, Ontario, Canada). These experiments were designed as a 6×5 matrix in triplicate. Each point of a 4-point concentration range of 0.15, 0.73, 1.5 and 2.2 μM Compound B-1 plus a ‘no treatment’ control in triplicate were added to 6 individual plates. The matrix was then assembled by exposure of each plate to 0, 1, 2, 4, 8, or 16 Gy of radiation.
Cells were cultured at 37° C., 5% CO2, 95% air and 100% relative humidity.
Viability Determination: Six days after compound addition, 75 μL of CellTiterGlo (prepared according to manufacturer's protocol) was added to each well of the compound titration plates. […]

[2] = tested on: primary human ovarian tumors (dissociated cells); assay: Tumor Chemosensitivity Assay (TCA): Compound B-2 with doxorubicin, primary ovarian tumors, viability after 6 days, Bliss; type: cell-based; design: Average Bliss score: scale not given here
Experimental: Specifically, one study described the combination of Compound B-2 and doxorubicin hydrochloride. In this study, a panel of primary human ovarian and endometrial tumors was dissociated and treated with Compound B-2 to determine the effectiveness of this selective DNA-PK inhibitor to enhance the activity of doxorubicin.
as §1, §2, §3, §4
For doxorubicin hydrochloride experiments, combinations with Compound B-2 at all concentrations were run in triplicate. A 6×3 matrix was designed on each plate: 0.73 μM and 2.2 μM Compound B-2, or 0.37 μM and 4.4 μM Compound B-2 on some tumors where additional cells were available, plus no treatment control, in 3 columns each of 6 wells. Doxorubicin hydrochloride (plus ‘no treatment’ control) was added to 9 wells in rows of this plate. […]

CNC(=O)c1ccnc2c([C@H](C)CNc3cc(-c4cnc(C)nc4)ncn3)cccc12 [Compound B-1]
tumors that showed synergy or additivity ([1]; 9 NSCLC tumors): 100%
tumors that showed strong synergy ([1]; three of 9 NSCLC tumors): 33%
Average Bliss score ([1]; tumor OD26131, Lung (NSCLC)): 12
Synergy/Additivity/Antagonism ([1]; tumor OD26131, Lung (NSCLC)): Strongly Synergistic (greater than 10 are considered strongly synergistic)
Average Bliss score ([1]; tumor OD26749, Lung (NSCLC)): 7
Synergy/Additivity/Antagonism ([1]; tumor OD26749, Lung (NSCLC)): Synergistic (greater than 5 are considered synergistic)
Average Bliss score ([1]; tumor OD29498, Lung (NSCLC)): 2
Synergy/Additivity/Antagonism ([1]; tumor OD29498, Lung (NSCLC)): Additive (Values between 5 and −5 are considered additive)
Average Bliss score ([1]; tumor OD33117, Lung (NSCLC)): 9
Synergy/Additivity/Antagonism ([1]; tumor OD33117, Lung (NSCLC)): Synergistic (greater than 5 are considered synergistic)
Average Bliss score ([1]; tumor OD33966, Lung (NSCLC)): 8
Synergy/Additivity/Antagonism ([1]; tumor OD33966, Lung (NSCLC)): Synergistic (greater than 5 are considered synergistic)
Average Bliss score ([1]; tumor OD35982, Lung (NSCLC)): 5
Synergy/Additivity/Antagonism ([1]; tumor OD35982, Lung (NSCLC)): Additive (Values between 5 and −5 are considered additive)
Average Bliss score ([1]; tumor OD36088, Lung (NSCLC)): 14
Synergy/Additivity/Antagonism ([1]; tumor OD36088, Lung (NSCLC)): Strongly Synergistic (greater than 10 are considered strongly synergistic)
Average Bliss score ([1]; tumor TS110310, Lung (NSCLC)): 16
Synergy/Additivity/Antagonism ([1]; tumor TS110310, Lung (NSCLC)): Strongly Synergistic (greater than 10 are considered strongly synergistic)
Average Bliss score ([1]; tumor YAS111611, Lung (NSCLC)): 1
Synergy/Additivity/Antagonism ([1]; tumor YAS111611, Lung (NSCLC)): Additive (Values between 5 and −5 are considered additive)

[2H]c1nc(C)nc([2H])c1-c1cc(NC[C@@H](C)c2cccc3c(C(=O)NC)ccnc23)ncn1 [Compound B-2]
tumors that showed synergy or additivity ([2]; 11 ovarian tumors): 100%
tumors that showed strong synergy ([2]; four of 11 ovarian tumors): 36%
Average Bliss score ([2]; tumor CTG-0252 (Ovarian)): 14
Synergy/Additivity/Antagonism ([2]; tumor CTG-0252 (Ovarian)): Strongly Synergistic (greater than 10 are considered strongly synergistic)
Average Bliss score ([2]; tumor CTG-0253 (Ovarian)): 6
Synergy/Additivity/Antagonism ([2]; tumor CTG-0253 (Ovarian)): Synergistic (greater than 5 are considered synergistic)
Average Bliss score ([2]; tumor CTG-0258 (Ovarian)): 9
Synergy/Additivity/Antagonism ([2]; tumor CTG-0258 (Ovarian)): Synergistic (greater than 5 are considered synergistic)
Average Bliss score ([2]; tumor CTG-0486 (Ovarian)): 5
Synergy/Additivity/Antagonism ([2]; tumor CTG-0486 (Ovarian)): Additive (Values between 5 and −5 are considered additive)
Average Bliss score ([2]; tumor CTG-0791 (Ovarian)): 14
Synergy/Additivity/Antagonism ([2]; tumor CTG-0791 (Ovarian)): Strongly Synergistic (greater than 10 are considered strongly synergistic)
Average Bliss score ([2]; tumor CTG-0947 (Ovarian)): 10
Synergy/Additivity/Antagonism ([2]; tumor CTG-0947 (Ovarian)): Synergistic (greater than 5 are considered synergistic)
Average Bliss score ([2]; tumor CTG-0992 (Ovarian)): 8
Synergy/Additivity/Antagonism ([2]; tumor CTG-0992 (Ovarian)): Synergistic (greater than 5 are considered synergistic)
Average Bliss score ([2]; tumor CTG-1166 (Ovarian)): 8
Synergy/Additivity/Antagonism ([2]; tumor CTG-1166 (Ovarian)): Synergistic (greater than 5 are considered synergistic)
Average Bliss score ([2]; tumor CTG-1301 (Ovarian)): 8
Synergy/Additivity/Antagonism ([2]; tumor CTG-1301 (Ovarian)): Synergistic (greater than 5 are considered synergistic)
Average Bliss score ([2]; tumor CTG-1423 (Ovarian)): 12
Synergy/Additivity/Antagonism ([2]; tumor CTG-1423 (Ovarian)): Strongly Synergistic (greater than 10 are considered strongly synergistic)
Average Bliss score ([2]; tumor OVX001 (Ovarian)): 11
Synergy/Additivity/Antagonism ([2]; tumor OVX001 (Ovarian)): Strongly Synergistic (greater than 10 are considered strongly synergistic)

Reference: patent US11980633B2, “Method for treating cancer using a combination of DNA-damaging agents and DNA-PK inhibitors” (Vertex Pharmaceuticals Incorporated, priority 2016, dated 2024)
